Data set [1] deals with hormone-susceptible DMBA-induced mammary gland cancer tumors. The data set can be described thus: DMBA-induced hormone-susceptible mammary gland cancer in female rats, daily oral treatment. Type of data set: in vivo.
For data set [2], the system named is mammalian cancer cells. The settings on record: in vitro, cited from earlier work.
For data set [3], the system named is DMBA-induced mammary gland cancer. To be noted: cited from earlier work; for per cent of complete regression (disappearance of tumor) / per cent of partial decrease of tumors / tumors which did not regress at all / per cent of general regression of all tumors: after 30 days of administration; for per cent of general regression of all tumors: oil solutions, about 15 mg/kg.

For data set [4], the system named is induced mammary gland cancer. Kind of data set: Induced mammary gland cancer in rats, long-term growing tumors with lost androgen susceptibility (Table 1). Type of data set: in vivo, White random-bred rats.
Data set [5] concerns hormone-susceptible malignant tumors in women. Kind of data set: Clinical use in volunteer patients. To be noted: long-term (up to 2 months) administration in low doses.
Description: The duration of the course - 2 months.
The daily dose (with the patient's weight about 70 kg) consisted of 3 g DL-valine in combination with 25 mg (0.025 g or 5 tablets) methyltestosterone. The daile dose was divided into 3 single ones (1 g DL-valine in warm milk enterally and 1 tablet of methyltestosterone sublingually 3 times daily - on an empty stomach and before meals; and 1 tablet of methyltestosterone without DL-valine sublingually 2 times in the middle of the day before meals). The patient strictly observed the diet with the excess of protein, limited amount of carbohydrates and complete exclusion of animal fat and phospholipids (fish hard-roe, egg yolk), using no more than 1-2 table spoonfuls of vegetable oil daily.

Where only a bound is given, the exact number is not on record here.

As for `CC(C)C(N)C(=O)O` (racemic) [DL-valine], in data set [1] (DL-valine 275 mg/kg in the mixture), the regression effect result is given as “disappears completely”. Moreover, the “optimal dose of DL-valine” value in data set [1] (in the mixture) is 550 mg/kg. The “damage of non-malignant cells” value in data set [2] is “without any damage”. Also, the “cytotoxic effect on mammalian cancer cells” value in data set [2] (compared with other DL-amino acids) is given as “the strongest cytotoxic effect”.
On to `C[C@@H]1C[C@@]2(C)[C@@H](CC[C@@H]3[C@@H]2CC[C@]2(C)[C@@H](O)CC[C@@H]32)CC1=O` [2α -methyldihydrotestosterone], for which, in data set [3], the “per cent of complete regression (disappearance of tumor)” value (shortened to “per cent of complete regression”) is 20%, the “per cent of partial decrease of tumors” value was 60%, the “tumors which did not regress at all” value was 20% and the “per cent of general regression of all tumors” value (shortened to “per cent … of all tumors”) is recorded as 80%.
In the case of `CCC(=O)O[C@H]1CC[C@H]2[C@@H]3CC[C@H]4CC(=O)[C@H](C)C[C@]4(C)[C@H]3CC[C@]12C` [2α-methyldihydrotestosterone propionate], in data set [3], the “per cent of complete regression” value is listed as 50%, the “per cent of partial decrease of tumors” value is reported as 20%, the “tumors which did not regress at all” value is 30% and the “per cent … of all tumors” value was 70%.
Regarding `C[C@]12C=CC(=O)C=C1CC[C@@H]1[C@@H]2CC[C@@]2(C)[C@H]1CC[C@]2(C)O` [methandrostenolone], the “optimal dose of methandrostenolone in mixture with DL-valine” value in data set [4] (long-term growing tumors 10 cm³ or larger) is 20-25 mg/kg body weight.
For the compound `C[C@]12CCC(=O)C=C1CC[C@@H]1[C@@H]2CC[C@@]2(C)[C@H]1CC[C@]2(C)O` [methyltestosterone], the minimal effective dose in data set [1] (Rattus norvegicus, po, without DL-valine, read-out: dose from which methyltestosterone alone causes regression) was no less than 25 mg/kg. Also, the “antiblastic effect alone, without DL-valine” value in data set [1] (nontherapeutic doses 5-10 mg/kg) was “cause no regression or even inhibition of the growth”. Further, the “better dose of methyltestosterone in combination with DL-valine” value in data set [1] (tumor sizes over 6.0 cm³ up to 8-10 cm³) is recorded as 10 mg/kilo body weight. The “dose of methyltestosterone giving the optimal antiblastic effect in combination with DL-valine” value in data set [1] (tumors of 4.0 cm³ to 6.0 cm³) was found to be 5 mg per kilo body weight. In data set [3] (administered orally), the experimental therapeutic dose is on record as 25-40 mg/kg per day. Besides, the side effects result in data set [5] is listed as “weak manifestations of virilism”.
As to `COc1cc(C=NNC(=O)c2ccncc2)ccc1O` [phthivazid], in data set [4] (with DL-valine and methandrostenolone, found empirically), the “optimal dose of phthivazid” value was 45-50 mg/kg body weight.
Turning to `CCC(=O)O[C@H]1CC[C@H]2[C@@H]3CCC4=CC(=O)CC[C@]4(C)[C@H]3CC[C@]12C` [testosterone propionate], in data set [3], the “per cent of complete regression” value is listed as 10%, the “per cent of partial decrease of tumors” value is given as 30%, the “tumors which did not regress at all” value is reported as 60% and the “per cent … of all tumors” value is 40%.

The record behind these values is patent EP0609460A1, “PHARMACEUTICAL AGENT WITH A[…]” (KISLYAKOVA, Nonna Dmitrievna, priority 1992, dated 1994).
